The series deals with fungi and bacteria on leaf explants. Nature of the series: Leaf disinfection of cacao leaf explants (hypochlorite under vacuum). Also on record: species or system Theobroma cacao; cacao leaf disinfection: dose or concentration left out as unconfirmed. Here is the method:
The leaves were cleaned with soap and rinsed with distilled sterile water for three times. Afterwards, the leaves were cut in pieces in sizes of 2 cm^2, disinfected by immersion in alcohol 70% for five minutes, and rinsed three times with ultrapure sterile water. Then, the leaf explants were immersed in 1% calcium hypochlorite or 20% sodium hypochlorite for 50-60 minutes in vacuum condition (70 k-pascal) and rinsed 3-5 times with ultrapure sterile water.

Turning to `[Ca+2].[O-]Cl.[O-]Cl` [calcium hypochlorite], the “leaf death after disinfection” value (high concentration of calcium hypochlorite) is on record as “high percentage of leaf death”. Also, under “low concentration of calcium hypochlorite for 40 minutes, with vacuum”, the cacao leaf disinfection result is listed as “best treatment for cacao leaf disinfection”.

Values taken from US11925166B2, “Cacao cell suspension protocol” (Mars, Incorporated, priority 2019, dated 2024).
